In ChEMBL document CHEMBL1201862, “PubChem BioAssay data set” (2004):
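Values below derive from 48-hour exposures of cells grown in 96-well plates, with endpoints linearly interpolated between the two concentrations bracketing the appropriate inhibition level. At the GI50, growth is halved.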 Calls of active or inactive are those of the source. No stated cut-off is given here; in the data, active = GI50 up to about 1.1 µM and inactive = higher.

Key:
Assay in all cases: growth of human tumour cells (NCI), 48 h
[1] = tested on: A549
[2] = tested on: EKVX
[3] = tested on: HCT-116
[4] = tested on: HOP-92
[5] = tested on: LXFL 529
[6] = tested on: M14
[7] = tested on: Malme-3M
[8] = tested on: NCI-H226
[9] = tested on: NCI-H460
[10] = tested on: OVCAR-8
[11] = tested on: SF-268
[12] = tested on: SN12C
[13] = tested on: SNB-19
[14] = tested on: SNB-75
[15] = tested on: TK-10
[16] = tested on: OVCAR-4

Measured: GI50

COc1ccc(C(=O)CC2=Nc3nnc(CCCCCCCc4nnc5n4C(=O)C(CC(=O)c4ccc(OC)cc4)=N5)n3C2=O)cc1
inactive: [1] > 100 µM | [2] > 100 µM | [3] > 100 µM | [4] > 100 µM | [5] > 100 µM | [6] > 100 µM | [7] > 100 µM | [8] > 100 µM | [9] > 100 µM | [10] > 100 µM | [11] > 100 µM | [12] > 100 µM | [13] > 100 µM | [14] 31.6 µM | [15] > 100 µM

CCOC(OC1=C(C#N)CCCC1)C(CC)[Se]c1ccccc1 (stereo unspecified)
inactive: [1] 39.4 µM | [2] 24.4 µM | [3] 14.5 µM | [4] 25 µM | [5] 19.4 µM | [6] 26.3 µM | [7] 31 µM | [8] 19.4 µM | [9] 17.8 µM | [16] 19.3 µM | [10] 16.8 µM | [11] 12.1 µM | [12] 16.3 µM | [13] 39.9 µM | [14] 29.3 µM | [15] > 100 µM

CCOC(=O)C(=O)CC1=Nc2ccccc2SC(c2cccc(C)c2)C1 (stereo unspecified)
inactive: [1] 21.2 µM | [2] 21.5 µM | [3] 14.7 µM | [4] 16 µM | [5] 18.1 µM | [6] 18.6 µM | [7] 17.3 µM | [8] 16.9 µM | [9] 19.5 µM | [16] 18 µM | [10] 12.6 µM | [11] 16.8 µM | [12] 17.1 µM | [13] 18.3 µM | [14] 18.9 µM

COc1cc(C2C(C(=O)Nc3ccc(Cl)c(Cl)c3)=C(C)NC(C)=C2C(=O)Nc2ccc(Cl)c(Cl)c2)ccc1O
inactive: [1] 12.8 µM | [2] 10.3 µM | [4] 2.6 µM | [5] 9.27 µM | [6] 12.6 µM | [7] 12.6 µM | [8] 16.7 µM | [9] 12.8 µM | [16] 5.3 µM | [10] 13.9 µM | [11] 11.7 µM | [12] 12.3 µM | [13] 12.3 µM | [14] 10.3 µM | [15] 19.1 µM

COc1cc2c(cc1OC)C(C#N)N(C(=O)c1ccccc1)C=C2OC(=O)c1ccccc1 (stereo unspecified)
inactive: [2] 28.7 µM | [4] 27 µM | [5] 20.6 µM | [6] 37.8 µM | [7] 25.3 µM | [8] 23.2 µM | [9] 36.4 µM | [10] 27.9 µM | [11] 30.8 µM | [12] 38.5 µM | [13] 23.6 µM | [14] 17 µM | [15] 27.1 µM

C/C=C(/CCCCNCCCC)[Si](C)(C)C
inactive: [1] 15.3 µM | [2] 12.4 µM | [3] 12.4 µM | [4] 6.38 µM | [5] 15.9 µM | [6] 14.4 µM | [7] 16.9 µM | [9] 15.6 µM | [10] 15.7 µM | [11] 12.3 µM | [12] 16.2 µM | [13] 17.7 µM | [14] 13.5 µM | [15] 15 µM

CC(C)(C)OC(=O)N[C@H]1CC(=O)c2ccccc2N(CC(=O)O)C1=O
inactive: [1] > 100 µM | [2] > 100 µM | [3] 26.5 µM | [4] > 100 µM | [5] > 100 µM | [6] > 100 µM | [7] 19.9 µM | [8] > 100 µM | [9] > 100 µM | [16] > 100 µM | [10] > 100 µM | [11] > 100 µM | [12] > 100 µM | [13] > 100 µM | [14] 81.1 µM | [15] > 100 µM

COC(=O)/C(C#N)=C1\NN=NN1c1ccc(OC)cc1
inactive: [1] > 100 µM | [2] > 100 µM | [3] > 100 µM | [4] > 100 µM | [5] > 100 µM | [6] > 100 µM | [7] > 100 µM | [8] > 100 µM | [9] > 100 µM | [10] > 100 µM | [12] > 100 µM | [13] > 100 µM | [14] > 100 µM | [15] > 100 µM

CCOC(OC1=C(C#N)CCC1)C(C)[Se]c1ccccc1 (stereo unspecified)
inactive: [1] 67.8 µM | [2] 30.5 µM | [3] 18.8 µM | [4] 24.4 µM | [5] 17.2 µM | [6] 16.1 µM | [7] 12.7 µM | [8] 19.7 µM | [9] 36.4 µM | [16] 14.9 µM | [10] 18.7 µM | [11] 19.8 µM | [12] 14.7 µM | [13] 48.1 µM | [14] 22.3 µM | [15] > 100 µM

CC1CC(=O)C(C(O)CC2CC(=O)N(c3ccccc3)C(=O)C2)C(C)C1 (stereo unspecified)
inactive: [1] > 100 µM | [2] > 100 µM | [3] > 100 µM | [4] > 100 µM | [5] > 100 µM | [6] > 100 µM | [7] > 100 µM | [8] > 100 µM | [9] > 100 µM | [16] > 100 µM | [10] > 100 µM | [11] > 100 µM | [12] > 100 µM | [13] > 100 µM | [14] > 100 µM | [15] > 100 µM

c1ccc2c(c1)CCC/C2=N\OCC1CO1 (stereo unspecified)
inactive: [1] > 100 µM | [2] > 100 µM | [3] 47.2 µM | [4] 5.77 µM | [5] 64.3 µM | [6] 80.9 µM | [7] > 100 µM | [9] > 100 µM | [16] > 100 µM | [10] 81.7 µM | [11] 52.4 µM | [12] > 100 µM | [13] > 100 µM | [14] > 100 µM | [15] > 100 µM

O=C(CSc1nc(-c2ccccc2)c(-c2ccccc2)[nH]1)NNC(=S)Nc1ccccc1
inactive: [1] > 100 µM | [3] 97.1 µM | [4] 36.2 µM | [5] > 100 µM | [6] 94.6 µM | [7] > 100 µM | [8] > 100 µM | [9] > 100 µM | [16] 64 µM | [10] 46.7 µM | [11] > 100 µM | [12] > 100 µM | [13] > 100 µM | [14] > 100 µM | [15] 53.2 µM
active: [2] 0.414 µM

COC(=O)C(Cc1cc(OC)c(OC)c(OC)c1)c1ccc(OC)cc1 (stereo unspecified)
inactive: [1] > 100 µM | [2] > 100 µM | [3] > 100 µM | [4] 85.9 µM | [5] 54.7 µM | [6] > 100 µM | [7] > 100 µM | [8] > 100 µM | [9] > 100 µM | [16] > 100 µM | [10] > 100 µM | [11] > 100 µM | [12] > 100 µM | [13] > 100 µM | [15] > 100 µM
